Measurements: patent US12285512B2, “Composition comprising allulose as active ingredient for skin whitening” (CJ CHEILJEDANG CORPORATION, priority 2018, dated 2025)
Entries after “also recorded” stand apart in the source; their conditions may differ.

Tests used:
tyrosinase from mushroom [1] = assay: Quantitative LC analysis of substrate (catechol) in the tyrosinase enzyme reactant; assay type: biochemical; conditions: 50 mM sample; for Reduction rate of catechol compared to initial stage of reaction: 0 to 60 min, D.W. control 8.2%; for Reduction rate of catechol compared to initial stage of reaction / amount of catechol in the enzyme reactant: 37° C.; for tyrosinase activity (from catechol consumption, Table 2): LC quantification of catechol
Procedure: (§1) An enzyme solution was prepared by dissolving 0.2 mg/ml of tyrosinase from mushroom (25 KU, 2687 units/mg solid) in 50 mM sodium phosphate buffer (pH 6.5). […] As a substrate, 30 mM catechol, an enzyme solution, and 100 mM sodium phosphate buffer (pH 6.5) were mixed so that the mixing ratio of catechol:enzyme solution:sodium phosphate buffer was 5:1:4. […] As a co-sample solution, DW was added instead of the enzyme solution. After mixing, absorbance was measured at 420 nm.
A catechol standard preparation was diluted according to concentration, and then was subjected to LC analysis to obtain a standard curve of the catechol. 200 μl of each enzyme reaction solution obtained in Experimental Example 2-1 above was added into a PCR tube, and was reacted at 37° C. for 0 minutes (an enzyme reaction product in which the enzyme was inactivated by heating each enzyme reaction solution for 10 minutes), 10 minutes, 20 minutes, 30 minutes, and 60 minutes to prepare an enzyme reactant for each reaction time. The reaction was stopped using a heat block. The reaction was stopped according to the planned time and heated in a heat block at 105° C. for 10 minutes, and then put in ice and cooled for 10 minutes. The PCR tube was centrifuged twice using a centrifuge. LC analysis was carried out by a typical analytical method. The enzyme reactant was filtered with a 1-ml syringe. The filtered enzyme reactant was injected into an insert, and was subjected to LC analysis. The amount of catechol in the enzyme reactant was measured according to the standard curve, which is obtained in advance, for quantifying catechol.

tyrosinase from mushroom [2] = assay: Polyphenol oxidase (tyrosinase from mushroom) activity, catechol substrate, absorbance at 420 nm; assay type: biochemical; conditions: 50 mM sample, 30 mM catechol substrate, pH 6.5; FIG. 2
Procedure: as §1

Murine melanocytes = assay: Inhibitory effect on melanogenesis: intracellular melanin (OD405) in a-MSH-treated murine melanocytes; assay type: cell-based; conditions: 50 μM a-MSH, 72 hours, FIG. 1
Procedure: Murine melanocytes were seeded on each 6-well plate at 1×10^4 cells/well. In a sample treatment group 24 hours after the seeding, cells were treated with allulose (CJ CheilJedang, 98% or higher purity) at a concentration of 0.01 wt %, 0.1 wt %, and 1 wt %. In a positive control group, cells were treated with arbutin at 0.02 wt %. A comparative group was treated with 1 wt % of glucose (Sigma Aldrich) or 1 wt % of fructose (Sigma Aldrich). An untreated group (control) was not treated with a sample, or a-MSH inducing melanin production. The sample treatment group, the positive control group, the comparative group, and the negative control group were treated with 50 μM of a-MSH. After 72 hours of treatment, cells were recovered and lysed with NaOH to detect intracellular melanin. The absorbances (OD405) of the untreated group, the negative control group (treated with only a-MSH), the sample treatment group (treated with a-MSH and each sample by concentration), and the positive control group (treated with a-MSH and arbutin) were measured.

[3] = reaction time 0 min (enzyme inactivated by heating)

| Compound | Reduction rate of catechol compared to initial stage of reaction (tyrosinase from mushroom [1]) [%] | tyrosinase activity (from catechol consumption, Table 2) (tyrosinase from mushroom [1]) | amount of catechol in the enzyme reactant (tyrosinase from mushroom [1]; [3]) [ppm] | amount of catechol in the enzyme reactant (tyrosinase from mushroom [1]; reaction time 30 min) [ppm] | amount of catechol in the enzyme reactant (tyrosinase from mushroom [1]; reaction time 60 min) [ppm] | tyrosinase activity (absorbance at 420 nm) (tyrosinase from mushroom [2]) | melanogenesis (intracellular melanin, OD405) (Murine melanocytes; 1 wt % of sample) | melanogenesis (intracellular melanin, OD405) (Murine melanocytes; allulose-treated group (0.01, 0.1 and 1 wt %)) |
| --- | --- | --- | --- | --- | --- | --- | --- | --- |
| OC[C@H]1O[C@@](CO)(O[C@H]2O[C@H](CO)[C@@H](O)[C@H](O)[C@H]2O)[C@@H](O)[C@@H]1O [Comparative Example 1, sucrose] | 8.1 | not inhibited at all | 3296.7 | 3112.0 | 3031.0 | – | – | – |
| O=C(CO)C(O)C(O)C(O)CO (centres unmarked) [allulose] | 6.1 | tyrosinase activity was inhibited | 3288.7 | 3126.7 | 3087.0 | tyrosinase activity was inhibited | inhibit melanogenesis; also recorded: melanogenesis was significantly inhibited | melanogenesis was suppressed |
| O=C(CO)[C@@H](O)[C@H](O)[C@H](O)CO [fructose] | 8.2 | not inhibited at all | 3236.0 | 3069.0 | 2971.0 | not inhibited at all | melanogenesis was not inhibited at all | – |
